These results are taken from patent US9624244B2, “Benzo [B] isoxazoloazepine bromodomain inhibitors and uses thereof” (Constellation Pharmaceuticals, Inc., priority 2012, dated 2017).

The target in one experiment is T1, BRD4(BD1) (Homo sapiens, UniProt O60885).
T1 construct: His; made in house
In words: BRD4 AlphaLisa binding assay. To be noted: BRD4(BD1) 30 nM, biotinylated H4-tetraacetyl peptide 200 nM, read-out: AS IC50. As to the method: IC50 Measurements for Inhibitors Using BRD4 AlphaLisa Binding Assay
Specifically, in a 384 well ProxiPlate BRD4(BD1) (30 nM final) was combined with peptide (200 nM final) in 40 mM HEPES (pH 7.0), 40 mM NaCl, 1 mM DTT, 0.01% (w/v) BSA, and 0.008% (w/v) Brij-35 either in the presence of DMSO (final 1.2% DMSO) or compound dilution series in DMSO. After 20 minute incubation at room temperature Alpha streptavidin donor beads and AlphaLisa anti-Flag acceptor beads were added to a final concentration of 10 ug/mL each. After three hours equilibration plates were read on an Envision instrument and IC50s calculated using a four parameter non-linear curve fit.
For orientation: Alpha assays give light when donor and acceptor beads are brought close together.

The subject of experiment [1] is MYC mRNA, MV4:11 (AML) or Raji (Burkitt's lymphoma) cells. The experiment can be described thus: cMyc RNA quantification assay (QuantiGene). Type of experiment: cell-based. The note with it: MV4:11 or Raji cells, 4 h, MYC mRNA normalized to DMSO. The protocol: cMyc RNA Quantification Assay (QuantiGene® Assay):
MV4:11 (AML) or Raji (Burkitt's lymphoma) cells were seeded in a 96-well plate and incubated in the presence of various concentrations of compounds for 4 h. Relative mRNA levels were quantitated by using QuantiGene 2.0 assay (Affymetrix) according to the manufacturer's recommendation. Signals were detected by using an Envision plate reader (Perkin-Elmer). Biological duplicates were averaged and normalized to vehicle (DMSO) control to calculate percent MYC mRNA levels.

Experiment [2] has as its system IL-6 secretion, THP-1 cells. In words: Cell-based IL-6 quantification assay (ELISA, Mesoscale) in LPS-stimulated THP-1 cells. The note with it: Homo sapiens, LPS 4 μg/mL, 16 h, ELISA value/CellTiter-Glo ratio. The protocol:
Cell-Based IL-6 Quantification Assay (ELISA, Mesoscale Assay):
100,000 THP-1 cells were seeded in RPMI1640-10% FBS in 96-well plates. LPS (E. Coli Invitrogen) in RPMI-10% FBS at a final concentration of 4 μg/mL was added to the wells and the cells are then incubated in the presence of various concentrations of compounds for 16 h. Plates are spun ([…], 5 min), an aliquot of 25 uL supernatant is transferred in to an ELISA plate (Mesoscale technology, MSD) and the detection of IL-6 is performed using manufacturer's instructions. The amount of cells in each well is assessed using CellTiter-Glo® (Promega). The ratio of ELISA value/CellTiter-Glo value is used to calculate the percent of inhibition of IL-6 secretion.
For orientation: ELISA stands for enzyme-linked immunosorbent assay.

Regarding `Cc1noc2c1-c1ccc(-c3cnn(CC(N)=O)c3)cc1N(c1ccc(C#N)cc1)CC2C` (stereo not drawn) [Compound 134, 2-(4-(6-(4-cyanophenyl)-1,4-dimethyl-5,6-dihydro-4H-benzo[b]isoxazolo[4,5-d]azepin-8-yl)-1H-pyrazol-1-yl)acetamide], the IC50 (commonly the midpoint of a concentration-inhibition curve) on BRD4(BD1) stood at 30 nM; in experiment [2], 70 nM. The concentration for a half-maximal effect (EC50) – broadly, the midpoint of the concentration-response curve – in experiment [1] came to 120 nM.
Consider `Cc1noc2c1-c1ccc(-c3cnn(C)c3)cc1N(c1ccc(C#N)cc1)C(=O)C2` [Compound 135, 4-(1-methyl-8-(1-methyl-1H-pyrazol-4-yl)-5-oxo-4H-benzo[b]isoxazolo[4,5-d]azepin-6(5H)-yl)benzonitrile], for which the 50% inhibitory concentration (IC50) on BRD4(BD1) stood at 490 nM; in experiment [2] it was 650 nM. The midpoint of the response in experiment [1], the EC50, lay at 1320 nM.
Take `Cc1onc2c1-c1ccccc1N(c1ccc(Cl)cc1)CC2` [Compound 136, 6-(4-chlorophenyl)-1-methyl-5,6-dihydro-4H-benzo[b]isoxazolo[4,3-d]azepine]: the IC50 was 4770 nM at BRD4(BD1) and 7700 nM in experiment [2]. Besides, in experiment [1], the concentration for a half-maximal effect (EC50) is over 4000 nM.
Taken in the same sequence, the figures for `Cc1noc2c1-c1ccc(-c3cnn(C)c3)cc1N(c1ccc(C#N)cc1)CC2CC(N)=O` (stereo not drawn) [Compound 137, 2-(6-(4-cyanophenyl)-1-methyl-8-(1-methyl-1H-pyrazol-4-yl)-5,6-dihydro-4H-benzo[b]isoxazolo[4,5-d]azepin-4-yl)acetamide] were 420 nM, over 1000 nM and 1840 nM.
Taken in the same sequence, the figures for `Cc1noc2c1-c1ccc(-c3cnn(C)c3)cc1N(c1ccc(C#N)cc1)CC2CCO` (stereo not drawn) [Compound 138, 4-(4-(2-hydroxyethyl)-1-methyl-8-(1-methyl-1H-pyrazol-4-yl)-4H-benzo[b]isoxazolo[4,5-d]azepin-6(5H)-yl)benzonitrile] were 80 nM, 340 nM and 310 nM.
Turning to `Cc1noc2c1-c1ccc(-c3ccc(N)nc3)cc1N(c1ccc(C#N)cc1)CC2CC(=O)N(C)C` (stereo not drawn) [Compound 139, 2-(8-(6-aminopyridin-3-yl)-6-(4-cyanophenyl)-1-methyl-5,6-dihydro-4H-benzo[b]isoxazolo[4,5-d]azepin-4-yl)-N,N-dimethylacetamide], the 50% inhibitory concentration (IC50) was 1000 nM at BRD4(BD1) and over 1000 nM in experiment [2]. In experiment [1], this molecule yielded an EC50 of over 4000 nM.
